Measurements from ChEMBL document CHEMBL1154818, “Molecular modeling study of binding site selectivity of TQMP to G-quadruplex DNA” (Eur J Med Chem, 2010).

Tests used:
[1] = tested on: Nucleic Acid; assay: Binding affinity to d(TTAGGG) sequence of G-quadruplex DNA; type: nucleic-acid assay
[2] = tested on: Nucleic Acid; assay: Binding affinity to DNA duplex; type: nucleic-acid assay

| SMILES | K [1] | K [2] |
| --- | --- | --- |
| C[n+]1ccc(-c2c3nc(c(-c4cc[n+](C)cc4)c4ccc([nH]4)c(-c4cc[n+](C)cc4)c4ccc([nH]4)c(-c4cc[n+](C)cc4)c4nc2C=C4)C=C3)cc1 | 1.38 ×10⁷ /mol | 2.73 ×10⁶ /mol |
| C[N+](C)(C)Cc1cc(-c2c3nc(c(-c4ccc(O)c(C[N+](C)(C)C)c4)c4ccc([nH]4)c(-c4ccc(O)c(C[N+](C)(C)C)c4)c4nc(c(-c5ccc(O)c(C[N+](C)(C)C)c5)c5ccc2[nH]5)C=C4)C=C3)ccc1O | 1.12 ×10⁶ /mol | 3.18 ×10⁴ /mol |
